The first assay concerns the target T1, NOD2 (Homo sapiens, UniProt Q9HC29).
T1 construct: host or cells: HEK-293T-derived HEK-Blue NF-kB/SEAP reporter cells
Nature of the assay: NOD2-HEK-Blue NF-κB reporter cell activation assay (NOD2-expressing HEK-293T cells). The note with it: TT018 vs. TT019, TT010 vs. TT020, TT011 vs. TT021; FIG. 2C. In kind it is cell-based. From the text: FIG. 1(A-F). Virtual screening for small molecule NOD2 agonists. A, Docked structure of muramyl dipeptide (MDP) in the leucine-rich repeat (LRR) domain of rabbit NOD2 (pdb 5IRM). […] B, Results of virtual docking approach with reported chemical structures related to MDP. C, Workflow of virtual screening in which a library was generated using carboxylic acids appended to the L-Val-D-Glu dipeptide and then docked to the NOD2 LRR domain. D, Desmuramyl MDP (dMDP) structures resulting from the virtual screen that were synthesized for further screening. Chemicals shown as a pure enantiomer were synthesized as a racemic mixture. E, Activation of NOD2-expressing HEK-293T cells treated for 16 h with 10 µM of the indicated compound using a colorimetric assay. F, Dose-dependent activation of NOD2-expressing HEK-293T cells using the indicated compounds. Numbers in parentheses represent calculated negative log of the half maximal effective concentration (pEC50) values. NOD activation assays were analyzed using a one-way ANOVA with Dunnett's multiple comparisons test compared to the DMSO control. pEC50 values were derived by a three-parameter dose-response nonlinear regression. ****P<0.0001.
FIG. 2(A-G). Structure-activity relationship studies of 3,5-dimethyl-N-arylpyrazole NOD2 agonists. A, Structures of 3,5-dimethyl-N-arylpyrazole structures synthesized for SAR studies. B-F, Dose-dependent activation of NOD2-expressing HEK-293T cells using the indicated compounds grouped by similar structural perturbations. Numbers in parentheses represent calculated pEC50 values. G, Graph of calculated pEC50 values vs. calculated partition coefficient (clogP). Dotted lines show equivalent lipophilic ligand efficiency (LLE) values. Red arrow indicates optimization of the TT007 scaffold to TT030. pEC50 values were derived by a three-parameter dose-response nonlinear regression.
Cell culture. The following cell lines were used and sourced as follows: HEK-Blue NOD2 (InvivoGen, hkb-hnod2), HEK-Blue NOD1 (InvivoGen, hkb-nod1), HEK-Blue Null2 (hkb-null2), and B16-F10 (ATCC CRL-6475). All cell lines were cultured at 37° C. in 5% CO2 in DMEM (ThermoFisher, 11995065) supplemented with 10% fetal bovine serum (FBS), 100 U mL-1 penicillin, and 100 μg mL-1 streptomycin. Cells were maintained at no greater than 70% confluency and subcultured using TrypLE Express. Cell lines were routinely cultured without antibiotics to ensure no bacterial infection and tested for mycoplasma using a Universal Mycoplasma Detection Kit (ATCC 30-1012K). Primary human peripheral mononuclear blood cells (PBMCs) were cultured at 37° C. in 5% CO2 in RPMI 1640 (ThermoFisher, 61870143) supplemented with 10% FBS. All experimental work using human samples was reviewed and approved by the Scripps Research Institutional Review Board (Protocol IRB-21-7816NOD2).
Reporter cell line activation assay. Approximately 24 h before the assay, culture medium for each of the HEK-Blue reporter cell lines was replaced with a 1:1 mixture of DMEM supplemented with 10% FBS and OptiMEM. On the day of the assay, single cell suspensions (150,000 cells/mL) were produced in HEK-Blue detection medium (InvivoGen, hb-det2). Cells were aliquoted at 200 μL per well of a 96-well plate containing 0.2 μL of a 1000× stock of each test compound in DMSO. Cells were then incubated at 37° C. in 5% CO2 for 8-10 h. To measure activity, wells were then gently pipetted up and down to mix the conditioned medium, and absorbance from the colorimetric product of the secreted alkaline phosphatase was measured at 630 nm. In some assays, cells were stimulated for 16 h with compounds as described above in complete DMEM. Then, 20 μL of the conditioned medium was mixed with 180 μL QUANTI-Blue solution (InvivoGen, rep-qbs) and incubated for 2-4 h at 37° C. Activity was then measured by absorbance as described above.
T1 sequence (Q9HC29 whole entry): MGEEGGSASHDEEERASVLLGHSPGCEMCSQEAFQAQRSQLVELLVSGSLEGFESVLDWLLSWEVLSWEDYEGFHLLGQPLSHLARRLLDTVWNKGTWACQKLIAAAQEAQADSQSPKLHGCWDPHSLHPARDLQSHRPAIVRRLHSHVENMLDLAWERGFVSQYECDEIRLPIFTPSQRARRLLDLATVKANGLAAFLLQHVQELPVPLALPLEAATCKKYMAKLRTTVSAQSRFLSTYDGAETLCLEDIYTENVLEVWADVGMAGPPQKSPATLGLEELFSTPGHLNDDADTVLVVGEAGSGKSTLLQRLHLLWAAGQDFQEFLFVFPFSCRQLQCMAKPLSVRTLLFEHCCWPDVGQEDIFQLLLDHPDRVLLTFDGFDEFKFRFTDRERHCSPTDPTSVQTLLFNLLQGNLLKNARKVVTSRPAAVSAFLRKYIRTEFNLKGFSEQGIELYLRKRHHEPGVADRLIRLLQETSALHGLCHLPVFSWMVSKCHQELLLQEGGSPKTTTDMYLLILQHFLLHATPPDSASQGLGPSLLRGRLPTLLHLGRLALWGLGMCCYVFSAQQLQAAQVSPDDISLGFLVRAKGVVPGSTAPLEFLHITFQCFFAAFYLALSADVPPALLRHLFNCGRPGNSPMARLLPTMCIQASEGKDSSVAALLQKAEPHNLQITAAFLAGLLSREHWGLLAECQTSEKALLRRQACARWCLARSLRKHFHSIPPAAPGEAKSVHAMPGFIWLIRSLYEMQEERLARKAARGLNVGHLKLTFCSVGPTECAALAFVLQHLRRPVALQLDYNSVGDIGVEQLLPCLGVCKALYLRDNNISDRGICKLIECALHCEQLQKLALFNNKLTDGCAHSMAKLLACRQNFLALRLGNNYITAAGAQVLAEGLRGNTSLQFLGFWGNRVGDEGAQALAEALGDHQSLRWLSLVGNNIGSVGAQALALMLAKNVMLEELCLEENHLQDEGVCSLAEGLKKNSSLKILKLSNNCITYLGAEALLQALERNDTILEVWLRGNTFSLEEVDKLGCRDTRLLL
As for `CCOC(=O)CC[C@@H](NC(=O)[C@H](C(C)C)N(C)C(=O)c1cn(-c2ccc(F)cc2)nc1C)C(=O)OCC` [TT021, Diethyl N-(1-(4-fluorophenyl)-3-methyl-1H-pyrazole-4-carbonyl)-N-methyl-L-valyl-D-glutamate], the “Activity after N-methylation on Val” value is “abolished the activity”.

Consider `CCOC(=O)CC[C@@H](NC(=O)[C@H](C(C)C)N(C)C(=O)c1c(C)nn(-c2ccccc2)c1C)C(=O)OCC` [TT019, Diethyl N-(3,5-dimethyl-1-phenyl-1H-pyrazole-4-carbonyl)-N-methyl-L-valyl-D-glutamate], for which the “Activity after N-methylation on Val” value is reported as “abolished the activity”.

Still in this assay, the particulars now being: Table 1.
Turning to `CCOC(=O)CC[C@@H](NC(=O)[C@@H](NC(=O)CCCc1ccccc1)C(C)C)C(=O)OCC` [TT001, Diethyl (4-phenylbutanoyl)-L-valyl-D-glutamate], the “NOD2 activation, result in words in the pEC50 column” value is reported as “Active”.

Staying with this assay, now noted: calculated, three-parameter dose-response nonlinear regression; read-out: pEC50 (μM), dose-dependent activation of NOD2-expressing HEK-293T cells (converted).
Consider `CCOC(=O)CC[C@@H](NC(=O)[C@@H](NC(=O)c1c(C)nn(-c2ccc(N)nc2)c1C)C(C)C)C(=O)OCC` [TT026, Diethyl (1-(6-aminopyridin-3-yl)-3,5-dimethyl-1H-pyrazole-4-carbonyl)-L-valyl-D-glutamate], for which the EC50 was 0.501 µM.

With `CCOC(=O)CC[C@@H](NC(=O)[C@@H](NC(=O)c1c(C)nn(-c2ccc(OC)cc2)c1C)C(C)C)C(=O)OCC` [TT023, Diethyl (1-(4-methoxyphenyl)-3,5-dimethyl-1H-pyrazole-4-carbonyl)-L-valyl-D-glutamate], the EC50 is 2 µM.

Take `CCOC(=O)CC[C@@H](NC(=O)[C@@H](NC(=O)c1c(C)nn(-c2ccccc2OC)c1C)C(C)C)C(=O)OCC` [TT035, Diethyl (1-(2-methoxyphenyl)-3,5-dimethyl-1H-pyrazole-4-carbonyl)-L-valyl-D-glutamate]: the EC50 was 1.58 µM.

Consider `CCOC(=O)CC[C@@H](NC(=O)[C@@H](NC(=O)c1c(C)nn(-c2ccc(NC(=O)OC(C)(C)C)nc2)c1C)C(C)C)C(=O)OCC` [TT027, Diethyl (1-(6-((tert-butoxycarbonyl)amino)pyridin-3-yl)-3,5-dimethyl-1H-pyrazole-4-carbonyl)-L-valyl-D-glutamate], for which the EC50 is 0.158 µM.

As for `CCOC(=O)CC[C@@H](NC(=O)[C@@H](NC(=O)c1c(C)nn(-c2ccc3cc[nH]c3c2)c1C)C(C)C)C(=O)OCC` [TT025, Diethyl (1-(1H-indol-6-yl)-3,5-dimethyl-1H-pyrazole-4-carbonyl)-L-valyl-D-glutamate], the EC50 was 0.158 µM.

In the case of `CCOC(=O)CC[C@@H](NC(=O)[C@@H](NC(=O)c1c(C)nn(-c2ccncc2)c1C)C(C)C)C(=O)OCC` [TT031, Diethyl (3,5-dimethyl-1-(pyridin-4-yl)-1H-pyrazole-4-carbonyl)-L-valyl-D-glutamate], the EC50 was 3.16 µM.

Turning to `CCOC(=O)CC[C@@H](NC(=O)[C@@H](NC(=O)c1c(C)nn(-c2cncnc2)c1C)C(C)C)C(=O)OCC` [TT034, Diethyl (3,5-dimethyl-1-(pyrimidin-5-yl)-1H-pyrazole-4-carbonyl)-L-valyl-D-glutamate], the EC50 is 2.51 µM.

Turning to `CCOC(=O)CC[C@@H](NC(=O)[C@@H](NC(=O)c1cn(-c2ccc(C)cc2)nc1C)C(C)C)C(=O)OCC` [TT013, Diethyl (3-methyl-1-(p-tolyl)-1H-pyrazole-4-carbonyl)-L-valyl-D-glutamate], the EC50 was 10 µM.

The same assay, now with this note: relative to TT007; FIG. 2B, 2D, 2F, 6E.
With `CCOC(=O)CC[C@@H](NC(=O)[C@@H](NC(=O)c1c(C)nn(-c2ccc(OC)cc2)c1C)C(C)C)C(=O)OCC` [TT023, Diethyl (1-(4-methoxyphenyl)-3,5-dimethyl-1H-pyrazole-4-carbonyl)-L-valyl-D-glutamate], the “Potency in structure-activity comparison” value is “did not yield compounds with appreciable differences in potency”.

Source of the values: patent US20260176300A1, “N-ARYLPYRAZOLE NOD2 AGONISTS AS PROMOTERS OF IMMUNE CHECKPOINT INHIBITOR THERAPY” (THE SCRIPPS RESEARCH INSTITUTE, priority 2022, published 2026).
